The source of these data is patent publication US5185363A, “Urea based lipoxygenase inhibiting compounds” (Abbott Laboratories, priority 1991, dated 1993).

Molecules are shown by their SMILES.

For this experiment, the target named is T1, 5-Lipoxygenase from RBL-1 20,000 xg Supernatant (Rattus norvegicus, UniProt P12527).
T1 construct: supermatant from 1.5 million homogenized RBL-1 cells; endogenous in cells; host or cells: RBL-1 cells, 20,000 x g supernatant of homogenate
T1 sequence (P12527 1-673): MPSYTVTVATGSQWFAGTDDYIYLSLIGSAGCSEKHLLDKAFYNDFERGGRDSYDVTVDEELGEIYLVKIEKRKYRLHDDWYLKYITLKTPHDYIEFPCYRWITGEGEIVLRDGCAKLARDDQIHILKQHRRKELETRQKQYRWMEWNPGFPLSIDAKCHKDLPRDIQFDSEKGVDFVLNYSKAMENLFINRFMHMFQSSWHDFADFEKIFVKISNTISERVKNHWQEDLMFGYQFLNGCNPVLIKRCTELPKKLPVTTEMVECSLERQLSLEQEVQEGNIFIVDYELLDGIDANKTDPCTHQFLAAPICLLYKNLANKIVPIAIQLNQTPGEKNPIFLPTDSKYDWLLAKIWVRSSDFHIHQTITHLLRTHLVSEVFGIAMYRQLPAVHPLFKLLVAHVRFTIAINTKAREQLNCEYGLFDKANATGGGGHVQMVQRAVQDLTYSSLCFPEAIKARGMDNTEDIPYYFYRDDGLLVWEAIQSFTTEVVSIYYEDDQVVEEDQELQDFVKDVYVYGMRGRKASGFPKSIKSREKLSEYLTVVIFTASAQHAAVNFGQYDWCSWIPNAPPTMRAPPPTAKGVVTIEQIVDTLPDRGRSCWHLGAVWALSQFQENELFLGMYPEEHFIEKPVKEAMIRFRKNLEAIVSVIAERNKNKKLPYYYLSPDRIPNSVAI
Put plainly: In vitro inhibition of 5-lipoxygenase from RBL-1 20,000 xg supernatant. Type of experiment: biochemical. The conditions noted are these: radiolabeled arachidonic acid. The protocol: Assays to determine 5-lipoxygenase inhibitory activity were performed in […] incubations containing the 20,000xg supermatant from 1.5 million homogenized RBL-1 cells and various concentrations of the test compound. Reactions were initiated by addition of radiolabeled arachidonic acid and terminated by acidification and ether extraction. Reaction products were separated from nonconverted substrate by thin layer chromatography and measured by liquid scintillation spectroscopy. All incubations are performed in triplicate. Inhibition of 5-lipoxygenase activity was calculated as the ratio of the amount of product formed in the presence and absence of inhibitor. […] (Dyer, R.D.; Haviv, F.; Hanel, A. M.; Bornemier, D. A.; Carter, G. W. Fed. Proc., Fed. Am. Soc. Exp. Biol. 1984, 43, 1462A).
For the compound `CNC(=O)N(O)C(C)c1ccc(OCc2ccccc2)cc1` (stereo not shown) [Example 2, N-hydroxy-N-1-(4-phenylmethoxyphenyl) ethyl N'-methyl urea], the IC50 (as a rule, the concentration that inhibits the measured activity by half) came out at 370 nM.
In the case of `NC(=O)N(O)Cc1sccc1Sc1ccc(O)cc1` [Example 140, N-hydroxy-N-[3-(4-hydroxyphenylthio)thien-2-yl]methyl urea] it was 400 nM.
Regarding `NC(=O)N(O)Cc1sccc1Sc1ccc(Cl)cc1` [Example 142, N-hydroxy-N-[3-(4-chlorophenylthio)thien-2-yl]methyl urea], the IC50 amounted to 300 nM.
As for `NC(=O)N(O)CCCc1ccsc1` [Example 69, N-hydroxy-N-(3-(1-thien-3-yl)propyl) urea], the figure is 1500 nM.
In the case of `Cc1cc(C(C)N(O)C(N)=O)ccc1Cl` (stereo not shown) [Example 123, N-Hydroxy-N-(1-(4-chloro-3-methylphenyl)ethyl) urea] it was 500 nM; in that of `CCCCOc1ccc(C(C)N(O)C(N)=O)cc1` (stereo not shown) [Example 11, N-hydroxy-N-(1-(4-butoxyphenyl)ethyl) urea], 1100 nM; in that of `NC(=O)N(O)Cc1sccc1Sc1ccc(Br)cc1` [Example 141, N-hydroxy-N-[3-(4-bromophenylthio)thien-2-yl]methyl urea], 200 nM.
Consider `NC(=O)N(O)Cc1cccc(Oc2ccccc2)c1` [Example 125], for which half-maximal inhibition (IC50) required 400 nM.
In turn, `NC(=O)N(O)Cc1ccc(Oc2ccccc2)s1` [Example 155, N-hydroxy-N-[5-(phenoxy)thien-2-yl]methyl urea] displayed an IC50 of 700 nM.
`CNC(=O)N(O)C(C)c1ccc(Br)cc1` (stereo not shown) [Example 98, N-Hydroxy-N-1-(4-bromophenyl)ethyl-N'-methyl-urea] registered a concentration for half-maximal inhibition (IC50) of 1100 nM.
The compound `CNC(=O)N(O)C(C)c1ccc(C)c(Br)c1` (stereo not shown) [Example 115, N-Hydroxy-N-(1-(3-bromo-4-methylphenyl)ethyl)-N'-methyl urea] yielded an IC50 of 600 nM.
In the case of `NC(=O)N(O)Cc1cc(Oc2ccccc2)cs1` [Example 157, N-hydroxy-N-[4-(phenoxy)thien-2-yl]methyl urea] it was 500 nM; in that of `CCOC(=O)CNC(=O)N(O)C(C)c1cc(C)sc1C` (stereo not shown) [Example 59], 990 nM.
In the case of `C=CCN(CC=C)c1ccc(C(C)N(O)C(N)=O)cc1` (stereo not shown) [Example 121, N-Hydroxy-N-(1-(4-bis-allylaminophenyl)ethyl) urea] it was 740 nM; in that of `CC(C)(C)c1ccc(Sc2ccsc2CN(O)C(N)=O)cc1` [Example 144, N-hydroxy-N-[3-(4-tertbutylphenylthio)thien-2-yl]methyl urea], 200 nM.
As for `CCCCOc1cccc(C(C)N(O)C(N)=O)c1` (stereo not shown) [Example 13, N-hydroxy-N-(1-(3-butoxyphenyl)ethyl) urea], the IC50 was 2800 nM.
The compound `Cc1ccsc1C(C)N(O)C(N)=O` (stereo not shown) [Example 46, N-hydroxy-N-1-(3-methylthien-2-yl)ethyl urea] gave an IC50 of 2100 nM.
With `COC(=O)CCCNC(=O)N(O)C(C)c1ccsc1` (stereo not shown) [Example 61], the IC50 came to 2100 nM.
In turn, `CC(c1ccc(Br)s1)N(O)C(N)=O` (stereo not shown) [Example 133, N-hydroxy-N-[1-(5-bromothien-2-yl)ethyl]urea] returned an IC50 of 900 nM.
`CC(c1ccc(SC(C)(C)C)s1)N(O)C(N)=O` (stereo not shown) [Example 149, N-hydroxy-N-[1-(5-{terbutylthio}thien-2-yl)ethyl]urea] came in with an IC50 of 800 nM.
Consider `CC(c1ccc(Cc2ccccc2)s1)N(O)C(N)=O` (stereo not shown) [Example 57, N-hydoxy-N-(1-(5-benzylthien-2-yl)ethyl) urea], for which inhibition was half-maximal at 420 nM (IC50).
Take `NC(=O)N(O)Cc1sccc1Sc1ccccn1` [Example 145, N-hydroxy-N-[3-(2-pyridylthio)thien-2-yl]methyl urea]: the IC50 is 1500 nM.
Take `CNC(=O)N(O)C(C)c1ccc(Cl)c(C)c1` (stereo not shown) [Example 124, N-Hydroxy-N-(1-(4-chloro-3-methylphenyl)ethyl)-N'-methyl urea]: the IC50 came out at 600 nM.
In the case of `Cc1cc(C(C)N(O)C(=O)NCCO)c(C)s1` (stereo not shown) [Example 60, N-hydroxy-N-(1-(2,5-dimethylthien-3-yl)ethyl)-N'-(2-hydroxyethyl) urea] it was 3500 nM; in that of `CNC(=O)N(O)Cc1ccc(-c2ccccc2)s1` [Example 54, N-hydroxy-N-(1-(5-phenylthien-2-yl)methyl)-N'-methyl urea], 310 nM.
In turn, `NC(=O)N(O)Cc1ccc(-c2ccccc2)s1` [Example 53, N-hydroxy-N-(1-(5-phenylthien-2-yl)methyl) urea] had an IC50 of 200 nM.
As for `NC(=O)N(O)Cc1ccc(Cl)s1` [Example 129, N-hydroxy-N-(5-chlorothien-2-yl)methyl urea], the figure is 2000 nM.
`NC(=O)N(O)Cc1cc(Br)cs1` [Example 128, N-hydroxy-N-(4-bromothien-2-yl)methyl urea] had an IC50 of 2500 nM.
In the case of `CC(c1ccc(Sc2ccccc2)s1)N(O)C(N)=O` (stereo not shown) [Example 139, N-hydroxy-N-[1-(5-(phenylthio)-thien-2-yl)ethyl]urea] it was 400 nM; in that of `NC(=O)N(O)Cc1csc(Sc2ccccc2)c1` [Example 137, N-hydroxy-N-[5-(phenylthio)thien-3-yl]methyl urea], 400 nM; in that of `CCCCOc1ccc(C(C)N(O)C(N)=O)cc1` (stereo not shown) [Example 119, N-Hydroxy-N-(1-(4-butoxyphenyl)ethyl) urea], 530 nM.
The compound `NC(=O)N(O)Cc1sccc1Sc1ccccc1` [Example 134, N-hydroxy-N-[3-(phenylthio)thien-2-yl]methyl urea] showed an IC50 of 300 nM.
In the case of `CNC(=O)N(O)C(C)c1ccc(OC)cc1` (stereo not shown) [Example 117, N-Hydroxy-N-(1-(4-methoxyphenyl)ethyl)-N'-methyl urea] it was 4430 nM.
Compound `NC(=O)N(O)Cc1cc(Oc2ccc(Cl)cc2)cs1` [Example 158, N-hydroxy-N-[4-(4-chlorophenoxy)thien-2-yl]methyl urea] registered an IC50 of 400 nM.
`CNC(=O)N(O)C(C)c1ccc(F)c(Br)c1` (stereo not shown) [Example 114, N-Hydroxy-N-(1-(3-bromo-4-fluorophenyl)ethyl)-N'-methyl urea]: the IC50 worked out at 900 nM.
`CNC(=O)N(O)C(C)c1ccc(Cl)cc1` (stereo not shown) [Example 108, N-Hydroxy-N-(1-(4-chlorophenyl)ethyl)-N'-methyl urea] had an IC50 of 400 nM.
`CC(c1ccc(OCCc2ccccc2)cc1)N(O)C(N)=O` (stereo not shown) [Example 8, N-hydroxy-N-(1-(4-(2-phenyl)ethoxyphenyl)ethyl) urea] gave an IC50 of 330 nM.
Regarding `CC(c1ccc(F)c(Br)c1)N(O)C(N)=O` (stereo not shown) [Example 122, N-Hydroxy-N-(1-(3-bromo-4-fluorophenyl)ethyl) urea], the IC50 worked out at 800 nM.
In the case of `CNC(=O)N(O)C(C)c1ccc(F)cc1` (stereo not shown) [Example 110, N-Hydroxy-N-(1-(4-fluorophenyl)ethyl)-N'-methyl urea] it was 2300 nM; in that of `NC(=O)N(O)Cc1ccc(Sc2ccccc2)s1` [Example 135, N-hydroxy-N-[5-(phenylthio)thien-2-yl]methyl urea], 200 nM; in that of `CNC(=O)N(O)C(C)c1ccc(F)cc1F` (stereo not shown) [Example 104, N-Hydroxy-N-(1-(2,4-difluorophenyl)ethyl)-N'-methylurea], 3900 nM.
In the case of `CC(C)(C)Sc1ccc(CN(O)C(N)=O)s1` [Example 148, N-hydroxy-N-[5-(tertbutylthio)thien-2-yl]methyl urea] it was 300 nM; in that of `NC(=O)N(O)Cc1sccc1Br` [Example 127, N-hydroxy-N-(3-bromothien-2-yl)methyl urea], 1200 nM; in that of `CC(c1cc(Br)cs1)N(O)C(N)=O` (stereo not shown) [Example 132, N-hydroxy-N-[1-(4-bromothien-2-yl)ethyl]urea], 900 nM.
Regarding `NC(=O)N(O)Cc1sccc1Oc1ccccc1` [Example 156, N-hydroxy-N-[3-(phenoxy)thien-2-yl]methyl urea], it took 1000 nM to reach half-maximal inhibition (IC50).
For the compound `NC(=O)N(O)Cc1sccc1SCc1ccco1` [Example 146, N-hydroxy-N-[3-(2-furfurylmethylthio)thien-2-yl]methyl urea], the IC50 came to 700 nM.
As for `COc1ccc(C(C)N(O)C(N)=O)cc1` (stereo not shown) [Example 116, N-Hydroxy-N-(1-(4-methoxyphenyl)ethyl) urea], the figure is 4400 nM; as for `CC(C)(C)Sc1ccsc1CN(O)C(N)=O` [Example 147, N-hydroxy-N-[3-(tertbutylthio)thien-2-yl]methyl urea], 3700 nM; as for `CC(c1ccc(-c2ccccn2)s1)N(O)C(N)=O` (stereo not shown) [Example 48, N-hydroxy-N-(1-(5-pyrid-2-yl)thien-2-yl)ethyl urea], 1700 nM.
